Test: gradient 5% acetonitrile 3 min, to 50% in 2 min, to 85% in 15 min, held 3 min, 100 µL/min
Conditions: column: Zorbax Extend-C18 2.1 x 50 mm; eluents: water / acetonitrile, 0.1% formic acid
Method in brief: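 Values are retention times taken from adduct peaks that software picked and an analyst inspected. The pure standards were run as mixtures of ~100 molecules on HPLC linked to a quadrupole time-of-flight mass spectrometer, in positive and negative ionization mode. A Zorbax Extend-C18 column (2.1 × 50 mm, 1.8 μm) was used at 100 μL/min with water and acetonitrile, each including 0.1% formic acid.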

Row | Structure (SMILES) | RP-LC retention time [s]
1 | CC(C)(C)c1noc(-c2ccc(-n3cnc(C(=O)NC4CCCCC4)c3)nc2)n1 | 1040
2 | CCOc1ccccc1NC(=O)C1CC(=O)N(c2n[nH]c3ccccc23)C1 (centres undefined) | 767
3 | CCCN1CCn2cc(S(=O)(=O)Nc3ccc(F)cc3)cc2C1=O | 750
4 | O=C(NC1(c2nc(-c3cccnc3)no2)CCCCC1)c1ccc(F)c(Cl)c1 | 1030
5 | COCC(=O)N1CC(c2nnc(C(C)C)o2)C2(CCOCC2)C1 (centres undefined) | 577
6 | Cc1ccc(C)c(CNC(=O)c2cn3c(n2)CCCC3)c1 | 622
7 | CC1=C(c2cccc(Cl)c2)S(=O)(=O)N=C1N1CCCN(C(=O)c2ccncc2)CC1 | 677
8 | COc1ccccc1/C=C1\Cc2ccccc2C1=O | 1140
9 | O=C(c1csc(S(=O)(=O)N2CCC(C(=O)N3CCc4ccccc43)CC2)c1)N1CCOCC1 | 779
10 | CC(=O)Nc1ccc(S(=O)(=O)N2CCC(CN3CCC(C)CC3)CC2)cc1 | 608
11 | CCc1cccc(C)c1NC(=O)COc1cc(C)nc(N2CCN(c3ccccc3)CC2)n1 | 946
12 | O=C(NC1CCN(c2cc(-c3cccs3)[nH]n2)C1)c1cccc(F)c1 (centres undefined) | 715
13 | CN1CCO[C@@H](C(=O)NC2CC2)[C@@H]1c1ccccc1 | 562
14 | CCOc1cccc(-c2noc(Cn3cnc4c(cnn4-c4ccc(OC)cc4)c3=O)n2)c1 | 1090
15 | Cc1cc(N2CCN(C)CC2)nc2ccc(NC(=S)N3CCC(C)CC3)cc12 | 604
16 | COc1ccc(-c2nc(N3CCCC3)c3ccccc3n2)cc1 | 742
17 | COc1ccc(-c2c(C(=O)NCc3cccnc3)nn3c(C)cc(C)nc23)cc1S(=O)(=O)N1CCCC1 | 638
18 | COc1ccc(CC(=O)N2CCC3(CC2)NC(=O)c2ccc(Cl)cc2N3)cc1 | 787
19 | Cc1ccc(CNC(=O)Cn2cnc3c(c(C)c(C)n3-c3ccc(Cl)cc3)c2=O)o1 | 930
20 | O=C(NCCc1ccccc1)c1nnc(-c2ccc(S(=O)(=O)N3CCOCC3)cc2)o1 | 845
21 | Cc1ccc(Nc2nc(-c3ccc(C)cc3C)cs2)nc1 | 965
22 | COc1ccc(/C=C/c2nn3c(CCc4ccccc4)nnc3s2)cc1 | 910
23 | COc1ccc(-c2cn3cccnc3n2)cc1NC(=O)c1ccc(Br)cc1 | 738

Row | Structure (SMILES) | RP-LC retention time [s]
24 | COc1ccccc1CNC(=O)Cn1c(=O)c2cc(C3CC3)nn2c2ncccc21 | 760
25 | CCOCC(=O)N1CC(F)(F)C[C@H]1c1nc(COC)no1 | 675
26 | COc1ccc(NC(=O)C(C)C2CCN(C(=O)Nc3ccccc3)CC2)cc1Cl (centres undefined) | 850
27 | Cc1sc2cc(C(=O)NCCN(C)C)[nH]c2c1CN1CCCCC1 | 536
28 | Cc1cc(NS(=O)(=O)c2cc(-c3[nH]ncc3C(=O)N3CCCC3)oc2C)ccc1F | 730
29 | Cc1ccccc1S(=O)(=O)N1CCC(N2CCN(Cc3ccccc3)C(=O)C2=O)CC1 | 826
30 | CCOc1ccccc1CNC(=O)CN1CCN(Cc2cccc(Cl)c2)C1=O | 910
31 | Cc1ccc(S(=O)(=O)N2CCC3(CC2)NCCN=C3NCc2ccc(F)cc2)cc1 | 709
32 | COCCCNC(=O)CN1CC2=C(C1=O)C(c1ccccc1Cl)NC(=O)N2C (centres undefined) | 570
33 | CCC(C)NC(=O)C1CCN(CCc2cn(C)c3ncccc23)CC1 (centres undefined) | 574
34 | Cn1nc(C(=O)N2CC(N(C3CCOCC3)S(C)(=O)=O)C2)c2ccccc21 | 698
35 | O=C(Nc1nnc(Cc2ccccc2)s1)C1CCN(C(=O)c2ccccc2)CC1 | 767
36 | Cc1ccc(Nc2c(-c3ccccc3Cl)nc3ccc(Br)cn23)cc1 | 1110
37 | OCCNCc1ccc(-c2cc(Cl)ccc2Cl)o1 | 657
38 | Cc1ccc(S(=O)(=O)N2CCC3(CC2)NCCCN=C3NC2CCCC2)cc1Cl | 814
39 | CCc1ccccc1NC(=O)Cn1c(=O)n(-c2cccc(C)c2)c(=O)c2c1cc(C)n2C | 882
40 | COc1ccccc1CNC(=O)C1CCCN(c2nnc3cccc(C)n23)C1 (centres undefined) | 688
41 | Cc1ccccc1CNC(=O)c1cn(C)nc1S(=O)(=O)N1CCSCC1 | 887
42 | O=C(c1ccc(Br)cc1)N1CC2C3CCC(O3)C2C1 (centres undefined) | 838
43 | Cc1cnc(-c2ccccc2)n1CCNS(=O)(=O)Cc1ccccc1F | 651
44 | CN(Cc1cccnc1)C(=O)C12CCC=C1N(C1CCCC1)C(=O)CC2 (centres undefined) | 577
45 | O=C(NCc1ccc(-c2nc(-c3cccs3)no2)s1)C1CCC1 | 910
46 | COc1ccc(NC(=O)N2CCCC2c2nc(-c3cccc(OC)c3)no2)cc1 (centres undefined) | 875

Row | Structure (SMILES) | RP-LC retention time [s]
47 | Cc1nc(Nc2ncc(C(=O)Nc3c(C)cccc3Cl)s2)cc(N2CCN(CCO)CC2)n1 | 682
48 | O=C(c1cn2c(n1)CCCC2)N1CCN(c2ccc(Cl)cc2)CC1 | 648
49 | Cc1nn(CC(=O)NCCc2c[nH]c3ccc(Cl)cc23)c(=O)c2c(C)n(-c3ccccc3)nc12 | 908
50 | CCOc1ccccc1C(=O)Nc1c(-c2ccc(F)cc2)nc2ccccn12 | 719
51 | COc1cc(-c2nc3cc(C)ccn3c2Nc2ccc3c(c2)OCCO3)ccc1O | 636
52 | O=C(Cc1cc(-c2cc3ccccc3o2)on1)NCCc1c[nH]c2ccccc12 | 883
53 | COC(=O)c1ccc(C(=O)NCC2CCS(=O)(=O)C2)cc1 (centres undefined) | 620
54 | CCn1cc(-c2ccc(F)cc2)cc1C(=O)N1CCCCC1 | 1060
55 | COC(=O)CNC(=O)c1sc2ncccc2c1-n1cccc1 | 736
56 | O=C(Nc1cc(C(F)(F)F)ccc1Cl)c1cccc(Oc2ncccn2)c1 | 900
57 | O=C(C1CCN(c2cnn(Cc3ccccc3)c(=O)c2)CC1)N1CCCCCC1 | 774
58 | Cc1ccc(S(=O)(=O)Nc2ccc(-c3cn4ccccc4n3)cc2)cc1[N+](=O)[O-] | 662
59 | CC(=O)c1sc(NC(=O)c2cc(Cl)sc2Cl)nc1-c1ccccc1 | 1080
60 | Cc1ccc(CNC(=O)N(C)CCc2noc(-c3ccc(F)cc3)n2)cc1 | 915
61 | CCn1cc(S(=O)(=O)N2CCOc3ccc(NC(=O)C4CC4)cc3C2)cn1 | 734
62 | Cc1cc(C)c(NC(=O)Cn2cc(-c3nc(C)no3)ccc2=O)c(C)c1 | 712
63 | CCS(=O)(=O)c1ccc2c(c1)N(Cc1nc(-c3cccc(C)c3)no1)C(=O)CO2 | 926
64 | COC(=O)c1cnc2nc(C)ccc2c1Nc1cccc(Br)c1 | 718
65 | Cc1cccc(CNC(=O)C2CCCN2S(=O)(=O)c2cc3c(cc2Cl)NC(=O)CO3)c1 (centres undefined) | 868
66 | CC(C)CN1C(=O)c2cccn2CC1C(=O)NCCN1CCCC1 (centres undefined) | 572
67 | Cc1c2cnn(-c3ccccc3)c(=O)c2c(C)n1CCCC(=O)NCC1CCCO1 (centres undefined) | 687
68 | Cc1nc(-c2csc(S(=O)(=O)N3CCCC(C(=O)Nc4cccc(C#N)c4)C3)c2)no1 (centres undefined) | 930
69 | CCCC1CCC(C(=O)Nc2ccc3nc(N4CCN(c5ncccn5)CC4)cc(C)c3c2)CC1 (centres undefined) | 878

Row | Structure (SMILES) | RP-LC retention time [s]
70 | CCn1c(=O)n(CC(=O)NC(C)C)c(=O)c2cnc(-c3ccccc3)nc21 | 863
71 | CCC1CCCCN1Cc1nc(Cn2ccn3nc(-c4ccc(F)cc4)cc3c2=O)no1 (centres undefined) | 704
72 | O=C(NCc1csc(-c2cccs2)n1)C1CCN(C(=O)c2ccc(F)cc2)CC1 | 743
73 | O=C(c1[nH]nc2c1COc1ccccc1-2)N1CC(c2noc(COc3ccc(F)cc3)n2)C1 | 943
74 | O=C(NCc1cscn1)C1CCN(S(=O)(=O)c2cccs2)CC1 | 652
75 | Cc1cc(OC(C)C(=O)N[C@H](C(=O)O)C(C)C)c2c3c(c(=O)oc2c1)CCCC3 (some centres undefined) | 865
76 | CN(C)C(=O)c1ccc2c(c1)N(CC(=O)N1CCN(C(=O)c3ccco3)CC1)C(=O)C1CCCCN21 (centres undefined) | 667
77 | CCOC(=O)Cc1csc(NC(=O)C2CCN(c3cc(-n4ccnc4)ncn3)CC2)n1 | 576
78 | CN(C)CCCNC(=O)C1CCN(c2nc3ccc(-c4ccsc4)nc3s2)CC1 | 644
79 | CC(C)N1CCN(Cc2ccc(C(=O)NC3CCCCCC3)cc2)C(=O)C1=O | 749
80 | Clc1ccccc1N1CCN(c2cc(-c3nc(-c4ccccc4)no3)c3ccccc3n2)CC1 | 1130
81 | CCC(=O)N1CCc2cc(C)c(S(=O)(=O)NC3CC3)cc21 | 767
82 | O=C(Nc1nc2c(s1)CCc1ccccc1-2)c1cccc(F)c1 | 1120
83 | Cc1ccc(-c2ccc(=O)n(Cc3nc(-c4cccs4)no3)n2)cc1C | 1060
84 | Cc1ncn(CC(=O)Nc2cc(F)ccc2F)c(=O)c1C | 658
85 | COc1ccc(-c2ccnn2-c2ccc(SCc3ccccc3C)nn2)cc1 | 1390
86 | COc1ccc(-n2c(=O)c3sccc3n(Cc3nc(-c4ccc(C)c(C)c4)no3)c2=O)cc1 | 1090
87 | COCC1CN(C2CCC2)CC12CCN(C(=O)c1ccc(C)s1)CC2 (centres undefined) | 645
88 | Cn1c(=O)n(C)c2cc(CNCCc3ccc(Cl)cc3)ccc21 | 630
89 | CCOC(=O)Nc1ccc(C(=O)/C=C/c2ccccc2)cc1 | 1000

Reference: the METLIN SMRT retention time set (Domingo-Almenara et al. 2019)
